Measurements: patent US20080051330A1, “Inhibitors of serine protease activity, methods and compositions for treatment of herpes viruses” (priority 1999, published 2008)
* marks the point of attachment. Cbz = O=C(OCc1ccccc1)*; CHN2 = [N-]=[N+]=C*

B1: Cystatin C: human cysteine proteinase inhibitor present in extracellular fluids (protein, UniProt P01034 27-146, looked up)
Cystatin-C: SSPGKPPRLVGGPMDASVEEEGVRRALDFAVGEYNKASNDMYHSRALQVVRARKQIVAGVNYFLDVELGRTTCTKTQPNLDNCPFHDQPHLKRKAFCSFQIYAVPWQGTMTLSKSTCQDA

Legend:
[1] = system: Herpes simplex virus-2, strain MS; format: in vivo, SCID mouse; details: SCID mice; for survival rate: HSV-2 at 1000 times LD50 on abraded skin, topical, three times daily for 7 days from 2 hours after inoculation, compound 100 mg/kg, untreated control 20%
HSV [2] = test: Activity against HSV in vitro: ELISA with rabbit anti-HSV antibody in infected human lung fibroblast cells; format: cell-based, HSV-1 and HSV-2; details: HLF cells, virus absorbed in presence or absence of AAT
CMV = test: Activity against CMV in vitro: plaque reduction assay in human lung fibroblast cells; format: cell-based; details: HLF cells, plaques counted day 6-10 post-infection
HSV [3] = details: at molar concentration lower than that of acyclovir; cited from earlier work

Row | Molecule | survival rate [1] | effect on HSV by ELISA, optical density expressed as percent of control (HSV [2]) | reduction in number of CMV plaques (CMV) | percentage of mice surviving, in words, relative to vehicle control ([1]; HSV-2 at 1000 times LD50) | inhibitory effect on HSV replication (HSV [3])
1 | Nc1nc2c(ncn2COCCO)c(=O)[nH]1 [acyclovir, reference compound] | about 60% |  |  |  | 
2 | AAT: glycoprotein of MW 51,000 with 394 amino acids and 3 oligosaccharide side chains; serine protease inhibitor | about 60% | significant inhibitory effect | significant inhibitory effect | significantly greater | 
3 | Cbz-Leu-Val-Gly-CHN2 [reference compound] |  |  |  |  | strong inhibitory effects
4 | B1 |  |  |  |  | strong inhibitory effects
